Results as given in US11214803B2, “Modulators of YAP1 expression” (Ionis Pharmaceuticals, Inc., priority 2019, dated 2022).
Strand notation (5' to 3'): a small letter for the sugar, then the base; units joined by * are phosphorothioate-linked, units joined directly phosphodiester-linked; [ ] holds rarer units or linkages, { } end groups; capitals alone tell only the bases. k = constrained ethyl (cEt); [5mC] = 5-methylcytosine; d = 2'-deoxy (DNA)

Test system: Yap1 mRNA
Assay: Antisense inhibition of human Yap1 in A-431 cells by cEt gapmers, single dose (Example 2, RTS4814)
Assay type: cell-based
Conditions: A-431 cells, 5,000 cells per well, free uptake, 2,000 nM modified oligonucleotide, approx. 48 hours, RTS4814, normalized to RIBOGREEN; Table 4; asterisk (*) = targets amplicon region of primer probe set
Outline: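 A-431 cells (5,000/well) received 2,000 nM oligonucleotide by free uptake for about 48 h. Yap1 mRNA was then quantified by RT-qPCR with primer probe set RTS4814, normalized to RIBOGREEN total RNA, and reported as % of untreated control; asterisked values mark oligos inside the amplicon.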

Row | Substance | YAP1 (% UTC)
1 | 716373 (k[5mC]*kA*kA*d[5mC]*dT*dG*d[5mC]*dA*dG*dA*dG*dA*dA*kG*k[5mC]*kT; antisense) [Compound 716373] | 69 % UTC
2 | 716520 (antisense kA*kG*kT*d[5mC]*dT*dT*dT*dA*dT*dT*dA*dA*dA*kG*kA*kG) [Compound 716520] | 96 % UTC
3 | 716490 (kA*k[5mC]*kA*dA*d[5mC]*d[5mC]*dA*dA*d[5mC]*dT*dA*dT*dT*kA*k[5mC]*kT; antisense) [Compound 716490] | 63 % UTC

Same assay, conditions: Table 5; A-431 cells, 5,000 cells per well, free uptake, 2,000 nM modified oligonucleotide, approx. 48 hours; RTS4814; normalized to RIBOGREEN; Yap1 mRNA relative to untreated control cells

Row | Substance | YAP1 (% UTC)
4 | 716365 (kT*k[5mC]*kT*dG*dA*dT*dG*d[5mC]*d[5mC]*d[5mC]*dG*dG*d[5mC]*kG*kG*kG; antisense) [Compound 716365] | 83 % UTC

Same assay, conditions: Table 6; A-431 cells, 5,000 cells per well, free uptake, 2,000 nM modified oligonucleotide, approx. 48 hours; RTS4814; normalized to RIBOGREEN; Yap1 mRNA relative to untreated control cells

Row | Substance | YAP1 (% UTC)
5 | 716351 (kG*kG*kT*d[5mC]*dT*dG*dG*d[5mC]*dG*dG*d[5mC]*dT*dG*k[5mC]*kG*k[5mC]; antisense) [Compound 716351] | 112 % UTC
6 | 716543 (antisense kT*kA*kT*dT*dT*dG*dT*dA*dG*d[5mC]*dA*dA*dA*kG*kT*k[5mC]) [Compound 716543] | 35 % UTC

Same assay, conditions: Table 18; A-431 cells, 5,000 cells per well, free uptake, 2,000 nM modified oligonucleotide, approx. 48 hours; RTS4814; normalized to RIBOGREEN; Yap1 mRNA as percent of untreated control

Row | Substance | YAP1 (% UTC)
7 | 1075588 (kA*k[5mC]*kT*dT*dA*dT*dT*dA*dG*d[5mC]*dA*d[5mC]*d[5mC]*kT*kG*kG; antisense) [Compound 1075588] | 27 % UTC
8 | 1074532 (antisense kG*kA*kA*d[5mC]*dA*d[5mC]*dT*dA*dA*dA*d[5mC]*dT*dA*k[5mC]*kT*kT) [Compound 1074532] | 59 % UTC
9 | 1075108 (antisense k[5mC]*kT*kA*dA*dA*dA*dA*d[5mC]*dA*dT*dT*dG*dT*kG*kG*k[5mC]) [Compound 1075108] | 67 % UTC
10 | 1075748 (kG*kT*kA*dA*dA*dT*d[5mC]*dA*dA*dG*dT*dT*dG*k[5mC]*kA*kT; antisense) [Compound 1075748] | 7 % UTC
11 | 1076388 (kG*kA*kA*dA*dT*dA*dT*dT*d[5mC]*dG*dA*dG*dA*kA*kG*kA; antisense) [Compound 1076388] | 6 % UTC
12 | 1076292 (kT*kA*kT*dT*dA*dT*dT*dG*dA*dG*dT*dT*dA*kT*k[5mC]*k[5mC]; antisense) [Compound 1076292] | 27 % UTC

Same assay, conditions: Table 19; A-431 cells, 5,000 cells per well, free uptake, 2,000 nM modified oligonucleotide, approx. 48 hours; RTS4814; normalized to RIBOGREEN; Yap1 mRNA as percent of untreated control

Row | Substance | YAP1 (% UTC)
13 | 1075237 (antisense kG*k[5mC]*kT*dG*dA*dA*dA*dA*dT*dG*d[5mC]*dT*dA*kA*k[5mC]*kT) [Compound 1075237] | 105 % UTC
14 | 1075013 (antisense k[5mC]*kA*kT*dA*dA*dA*d[5mC]*d[5mC]*d[5mC]*dA*d[5mC]*dT*dT*k[5mC]*kG*kA) [Compound 1075013] | 102 % UTC
15 | 1075205 (antisense kA*kT*kT*dA*dA*dA*dT*dG*dA*dG*d[5mC]*dA*d[5mC]*k[5mC]*kA*k[5mC]) [Compound 1075205] | 29 % UTC
16 | 1075749 (kA*kA*kT*dT*dA*dT*dG*dA*dA*dT*dG*dA*dT*kG*kG*kG; antisense) [Compound 1075749] | 4 % UTC

Same assay, conditions: Table 20; Yap1 mRNA, percent of untreated control; 3-10-3 cEt gapmers targeting SEQ ID NO.: 1 and 2

Row | Substance | YAP1 (% UTC)
17 | 1076230 (kG*kA*kA*dT*dT*dA*dA*d[5mC]*d[5mC]*dT*d[5mC]*dA*dG*kT*kG*kA; antisense) [Compound 1076230] | 50 % UTC
18 | 1075110 (antisense kG*kA*k[5mC]*dT*dA*dA*dA*dA*dA*d[5mC]*dA*dT*dT*kG*kT*kG) [Compound 1075110] | 120 % UTC
19 | 1075622 (kT*k[5mC]*kT*dT*dA*dT*dA*d[5mC]*d[5mC]*dT*dA*dT*d[5mC]*kT*kT*k[5mC]; antisense) [Compound 1075622] | 56 % UTC
20 | 1076262 (kA*kG*kA*d[5mC]*dA*dA*dT*dA*dG*dT*d[5mC]*dT*dG*kG*kG*k[5mC]; antisense) [Compound 1076262] | 41 % UTC
21 | 1075526 (kT*kT*kT*dA*dA*dT*dT*dA*dA*dG*dG*dG*d[5mC]*k[5mC]*k[5mC]*kA; antisense) [Compound 1075526] | 110 % UTC

Same assay, conditions: Table 21; Yap1 mRNA, percent of untreated control; 3-10-3 cEt gapmers targeting SEQ ID NO.: 1 and 2

Row | Substance | YAP1 (% UTC)
22 | 1074311 (antisense kT*kT*k[5mC]*d[5mC]*dG*d[5mC]*dA*dT*dT*dG*d[5mC]*d[5mC]*dT*kG*kT*kG) [Compound 1074311] | 24 % UTC
23 | 1076007 (k[5mC]*kA*kT*dT*dA*dG*dG*d[5mC]*d[5mC]*dT*dT*dT*dT*kA*k[5mC]*kT; antisense) [Compound 1076007] | 27 % UTC

Same assay, conditions: Table 22; Yap1 mRNA as percent of untreated control; 3-10-3 cEt gapmers; single dose

Row | Substance | YAP1 (% UTC)
24 | 1076040 (k[5mC]*kT*kT*dA*dA*dA*dG*dA*dA*dG*d[5mC]*dA*d[5mC]*kT*kA*kG; antisense) [Compound 1076040] | 105 % UTC
25 | 1075432 (antisense k[5mC]*kT*kA*dA*d[5mC]*dT*dA*dA*dA*d[5mC]*dT*dG*dA*kT*kT*k[5mC]) [Compound 1075432] | 121 % UTC

Same assay, conditions: Table 23; Yap1 mRNA as percent of untreated control; 3-10-3 cEt gapmers; single dose

Row | Substance | YAP1 (% UTC)
26 | 1075529 (kA*kA*kA*dT*d[5mC]*dG*dA*dA*dG*dG*dG*d[5mC]*dA*kA*kA*k[5mC]; antisense) [Compound 1075529] | 84 % UTC
27 | 1074761 (kT*kA*k[5mC]*d[5mC]*d[5mC]*dA*dA*dT*dA*d[5mC]*dA*dA*d[5mC]*k[5mC]*kA*kA; antisense) [Compound 1074761] | 15 % UTC
28 | 1075177 (antisense kG*kA*kA*dA*dT*dT*dA*d[5mC]*d[5mC]*d[5mC]*dG*dG*dG*kA*kA*k[5mC]) [Compound 1075177] | 27 % UTC

Same assay, conditions: Table 24; Yap1 mRNA as percent of untreated control; 3-10-3 cEt gapmers targeting SEQ ID NO.: 1, and 2

Row | Substance | YAP1 (% UTC)
29 | 1076554 (antisense kT*kG*kG*dG*dA*dA*dT*dA*dG*dT*dG*dA*dA*kT*kT*kT) [Compound 1076554] | 30 % UTC
30 | 1074346 (antisense kA*kT*k[5mC]*dT*dG*dA*dG*d[5mC]*dT*dA*dT*dT*dG*kG*kT*k[5mC]) [Compound 1074346] | 10 % UTC
31 | 1076138 (kA*kG*k[5mC]*d[5mC]*dA*dA*d[5mC]*dA*dA*dT*dT*dT*dT*kT*kG*kG; antisense) [Compound 1076138] | 113 % UTC

Same assay, conditions: Table 25; Yap1 mRNA as percent of untreated control; 3-10-3 cEt gapmers targeting SEQ ID NO.: 1, and 2

Row | Substance | YAP1 (% UTC)
32 | 1074155 (antisense k[5mC]*k[5mC]*k[5mC]*dG*dG*d[5mC]*dT*d[5mC]*d[5mC]*dA*d[5mC]*dG*dG*kG*k[5mC]*k[5mC]) [Compound 1074155] | 87 % UTC
33 | 1076107 (k[5mC]*kA*kT*dT*dA*d[5mC]*d[5mC]*dA*dA*d[5mC]*dT*dT*d[5mC]*kT*kT*k[5mC]; antisense) [Compound 1076107] | 23 % UTC
34 | 1074763 (kT*kG*k[5mC]*dT*dA*d[5mC]*d[5mC]*d[5mC]*dA*dA*dT*dA*d[5mC]*kA*kA*k[5mC]; antisense) [Compound 1074763] | 25 % UTC

Same assay, conditions: Table 33; Yap1 mRNA, percent of untreated control; 3-10-3 cEt gapmers targeting SEQ ID NO.: 1, and 2

Row | Substance | YAP1 (% UTC)
35 | 1074931 (antisense kG*kA*kG*dA*d[5mC]*dT*dA*dT*dA*d[5mC]*dA*dA*d[5mC]*kA*kG*kG) [compound 1074931] | 35 % UTC
36 | 1075379 (antisense kT*kA*k[5mC]*d[5mC]*dA*dA*dA*dA*d[5mC]*dT*dA*d[5mC]*dA*kA*k[5mC]*k[5mC]) [compound 1075379] | 75 % UTC
37 | 1075635 (antisense kA*kA*kT*dA*dA*dA*d[5mC]*dA*d[5mC]*d[5mC]*dT*d[5mC]*dG*k[5mC]*k[5mC]*kA) [compound 1075635] | 97 % UTC
38 | 1075923 (antisense kT*kT*kT*dA*dA*dT*dA*d[5mC]*dT*d[5mC]*dT*d[5mC]*dT*kG*kG*kG) [compound 1075923] | 42 % UTC
39 | 1074259 (antisense kT*k[5mC]*kA*dT*dA*dT*dT*d[5mC]*dT*dG*d[5mC]*dT*dG*k[5mC]*kA*k[5mC]) [compound 1074259] | 38 % UTC
40 | 1076211 (kA*kA*kT*dT*dT*dA*dT*dA*dT*dG*d[5mC]*dT*d[5mC]*k[5mC]*k[5mC]*kT; antisense) [compound 1076211] | 22 % UTC
41 | 1074803 (kA*kG*kG*d[5mC]*dA*d[5mC]*dT*dA*d[5mC]*dA*dT*dT*dT*kA*kG*kA; antisense) [compound 1074803] | 32 % UTC
42 | 1075891 (antisense kA*kG*kA*dT*dT*dA*dA*dA*dA*dG*dT*dA*dG*kG*k[5mC]*k[5mC]) [compound 1075891] | 89 % UTC

Same assay, conditions: Yap1 mRNA as percent of untreated control; A-431 cells; 3-10-3 cEt gapmers targeting SEQ ID NO.: 1, and 2; Table 30

Row | Substance | YAP1 (% UTC)
43 | 1076176 (k[5mC]*kT*k[5mC]*d[5mC]*dA*dA*dT*dA*dG*dG*dT*dA*dA*k[5mC]*kA*kG; antisense) [compound 1076176] | 43 % UTC

Same assay, conditions: Yap1 mRNA as percent of untreated control; A-431 cells; 3-10-3 cEt gapmers targeting SEQ ID NO.: 1, and 2; Table 31

Row | Substance | YAP1 (% UTC)
44 | 1075057 (antisense k[5mC]*k[5mC]*kT*dT*dA*dG*dG*dA*dG*dT*dA*dG*dA*k[5mC]*kT*kG) [compound 1075057] | 14 % UTC
45 | 1074129 (k[5mC]*k[5mC]*k[5mC]*dG*dG*d[5mC]*dT*d[5mC]*d[5mC]*dA*d[5mC]*dT*dG*kG*kT*k[5mC]; antisense) [compound 1074129] | 77 % UTC
